Read-outs that look alike come from different tables or passages of the source.
Assays:
Type in all cases: cell-based
[1] = system: E. coli; test: Antibiotic resistance of the HMO reference collection of E. coli (Lookup Table); details: Reference set isolates (1227, 2010-2013)
Method: Both septatypes/clonotypes and antimicrobial profiles were identified.
In total, 1227 E. coli isolated from the HMO (Group Health) clinical lab in 2010-2013 were analyzed. All had their clonotype type determined and resistance to antibiotics tested. Septatypes were deduced from CH types (clonotypes). Red indicates resistance >30%. Yellow: more than 15% but less than 30%. Green: less than 15%.

[2] = system: E. coli; test: Antibiotic resistance of E. coli isolates from the field trial (Group Health Urgent Care); details: for overall resistance level: Field trial isolates; for Resistance rate in GH UC E. coli: field trial, Group Health Urgent Care
Method: The disclosed test kit and process was conducted on urinalysis-positive urine samples on-site at the HMO urgent care clinical laboratory. All urine samples obtained at Urgent Care facility were tested by the 7-SNP-based CLT(clonotyping) test and by a standard E. coli culturing test.
In total, 750 urinalysis-positive samples from the HMO urgent care lab were processed in CLT test and standard culturing test.
The E. coli clonotypes identified in the field study (out of 750 samples, see above) were compared to a reference collection of E. coli to (1) compare the clonotypes distribution, (2) compare the overall resistance profile, and (3) use the reference collection to predict if antibiotics can or cannot be allowed for use in each case in the field study (as a Lookup Table). Further, the prediction from (3) was compared to actual resistance of individual isolates and to clinical data regarding the prescription of antibiotics in each case. From this we can see if the implementation of the CLT test would improve the choice of antibacterial therapy.
For clone-based prediction of bacterial resistance of field study isolates we used a 15% resistance as a cutoff for rejection of an antibiotic.

[3] = system: Escherichia coli; test: Disk diffusion susceptibility of the reference set of clinical E. coli isolates split by 7-SNP typing; details: for prevalence of resistance: total E. coli study population
Method: This example illustrates setting up a reference database consisting of 2,559 random single-patient clinical E. coli isolates of primarily extra-intestinal origin, at eight international clinical microbiology laboratories. […] Conventional MLST (multi-locus sequence typing) was performed either in full using the standard scheme of 7 MLST loci (adk, fumC, gyrB, icd, mdh, purA, and recA) (Wirth et al., 2006. Sex and virulence in Escherichia coli: an evolutionary perspective. Mol, Microbiol, 60:1136-1151.) or as a combination of partial MLST and fumC/fimH typing, as described previously (Tchesnokova et al. 2013. Predictive diagnostics for Escherichia coli infections based on the clonal association of antimicrobial resistance and clinical outcome. J. Clin. Microbiol. 51:2991-2999). Some ST complexes, as identified by the eBURST v3 software, were defined operationally as a single ‘ST’ and were designated based on the ST identified as the cluster's founder (see Table 5) (Feil et al. 2004. eBURST: inferring patterns of evolutionary descent among clusters of related bacterial genotypes from multilocus sequence typing data. J. Bacteriol. 186:1518-1530).
Susceptibility to seven antibiotics was determined using a standardized disk diffusion method according to Clinical and Laboratory Standards Institute guidelines.

[4] = system: E. coli; test: CH clonotypes correlated with antibiotic susceptibility profiles of urine E. coli isolates
Source text: This example illustrates a high-resolution fumC/fimH (CH) clonotyping scheme for E. coli based on sequence variations within these highly-variable omnipresent genes for fumarase and fimbrial adhesin of E. coli, respectively. We correlated CH clonotypes with antibiotic susceptibility profiles among 1,600 urine E. coli isolates from clinical microbiology laboratories in Seattle (Group Health, UW, Harborview, and Children's Hospitals), Minneapolis (VA Medical Center), and Munster, Germany (University Clinic).
We next determined how knowledge of cumulative clonotype vs. overall (species) antibiogram could reduce potential ‘drug-bug’ mismatches during empirical antibiotic selection. We used the IDSA-recommended 80% susceptibility cutoff level to allow the use of specific antibiotic for each clonotype.

[5] = system: E. coli
Method: This example illustrates implementation of clonal testing in a healthcare community microbiology laboratory. We assessed the presence of E. coli sub-strains ST131 and ST69 (n=619) E. coli positive cultures. […] The tests were conducted to identify ST69 of ST131 genes specific to each clonotype on bacterial DNA isolated from patient urine specimens using RT-PCR instrumentation.

CC1(C)S[C@@H]2[C@H](NC(=O)[C@H](N)c3ccccc3)C(=O)N2[C@H]1C(=O)O [Ampicillin, ampicillin]
overall resistance level [1]: 44.7
overall resistance level [2]: 55.6

Cc1nnc(SCC2=C(C(=O)O)N3C(=O)[C@@H](NC(=O)Cn4cnnn4)[C@H]3SC2)s1 [cefazolin]
overall resistance level [1]: 15.5
overall resistance level [2]: 12.2
prevalence of resistance [3]: 23%
Total resistant ([4]; 1,600 urine E. coli isolates): 19.7%
% Resistant among Allowed ([4]; isolates of clonotypes allowed for treatment): 10.7%
% Resistant among Rejected ([4]; isolates of clonotypes rejected for treatment): 32.0%

CO/N=C(\C(=O)N[C@@H]1C(=O)N2C(C(=O)O)=C(CSc3nc(=O)c(=O)[nH]n3C)CS[C@H]12)c1csc(N)n1 [ceftriaxone]
overall resistance level [1]: 3.7
overall resistance level [2]: 4.8
prevalence of resistance [3]: 9%

O=C1CN(/N=C/c2ccc([N+](=O)[O-])o2)C(=O)N1 [nitrofurantoin]
overall resistance level [1]: 1.3
overall resistance level [2]: 2.9
Resistance rate in GH UC E. coli [2]: 2.9%
prevalence of resistance [3]: 11%

amoxicillin/clavulanate
overall resistance level [1]: 15.4
overall resistance level [2]: 21.2
Resistance rate in GH UC E. coli [2]: 25.6%
prevalence of resistance [3]: 28%

trimethoprim/sulfamethoxazole
overall resistance level [1]: 21.4
resistant ([5]; clonotype ST69): greater than 40%
resistant ([5]; clonotype ST131): greater than 40%
Resistance ([5]; study group, n=619 E. coli positive cultures): 15%
overall resistance level [2]: 25.8
Resistance rate in GH UC E. coli [2]: 25.7%
resistance in words ([3]; septatype 261 (ST69)): highly susceptible
resistance in words ([3]; septatype 560 (ST131-H41)): highly resistant
resistance in words ([3]; septatype 561 (ST131-H30)): highly resistant
prevalence of resistance [3]: 28%

Reference: patent US20160251702A1, “Process and Kit for Predicting Antibiotic Resistance and Susceptibility of Bacteria” (priority 2015, published 2016)
